Consider 4 compounds from US9597369B2, “Inhibitors of atypical protein kinase C and their use in treating hedgehog pathway-dependent cancers” (The Board of Trustees of the Leland Stanford Junior …, priority 2011, dated 2017).

SMILES strings stand for the structures. Peptide text beside a SMILES is read from it. * marks the point of attachment. Myristoyl = CCCCCCCCCCCCCC(=O)*

One data set has as its system non-tumorigenic cells. The experiment in a line: Proliferation of non-tumorigenic cells. It is filed as cell-based, mouse and human. As to conditions: mouse dermal fibroblasts, mouse keratinocytes, human retinal pigment epithelial cells, FIG. 7. The procedure: (§1) Primary mouse dermal cells were isolated as previously described (Bershteyn, M., Atwood, S. X., Woo, W.-M., Li, M. & Oro, A. E. MIM and cortactin antagonism regulates ciliogenesis and hedgehog signaling. Dev. Cell 19, 270-283 (2010)). Dermal cells were grown in Amniomax media containing supplement and antibiotics (Invitrogen). ASZ001 cells were grown in 154CF media containing 2% chelated FBS, HKGS supplement, and antibiotics (Invitrogen). Keratinocytes (HPA Culture Collections) were grown in CnT-07 media containing supplement and 0.07 mM CaCl2 (CelINTec). Cells were sterum-starved between 24-48 hrs to induce ciliogenesis. MTT cell proliferation assay was performed using manufacturer's protocol from Invitrogen.

Another data set deals with allografted BCC tumors. As to conditions: mouse, in vivo. From the text:
All mouse studies were approved by and conformed to the policies and regulations of the Institutional Animal Care and Use Committees at Stanford University and the Children's Hospital Oakland Research Institute. Ptch1+/−, K14CreER2, p53flox/flox mice were used to develop BCC tumors. Tumors were allografted as previously described (Wang, G. Y. et al. Establishment of Murine Basal Cell Carcinoma Allografts: A Potential Model for Preclinical Drug Testing and for Molecular Analysis. Journal of Investigative Dermatology (2011).doi:10.1038/jid.2011.204). Nine tumors from three mice were treated topically twice daily with 0.8 mg/kg PSI dissolved in DMSO for at least 32 days. Ten tumors from three mice were treated with DMSO twice daily as a control. Mice were euthanized and tumors harvested depending on tumor size that exceeded our animal care guidelines. We measured the change in tumor size with calipers every three to four days. Pairwise comparisons between DMSO and PSI treatment were done using a two-sided unpaired t test with GraphPad Prism software.

The subject of data set [1] is ASZ001 cells. It is filed as cell-based, mouse. As to conditions: 48 h. The procedure:
as §1
(§2) Subconfluent ASZ001 cells were serum-starved and inhibitors added for 48 hrs prior to MTT assay and 24 hrs prior to visualize cilia and assay Gli target gene induction. Stability assays performed with ASZ001 preincubated with PSI for one hour before 20 ug/ml cyclohexamide addition at various time points.

The test system of the next data set is Hh signaling. The experiment in a line: Hh signaling (gli1 mRNA, Gli target gene induction) in BCC cells. The class given is cell-based, mouse. The procedure: as §2
(§3) Aligned 36 bp raw reads with Bowtie using the NCBI37/mm9 reference genome. Differential expression analysis was performed on the 3′ exon with the Cufflinks suite using mouse RefSeq gene predictions as a reference transcriptome. Annotated coding transcripts were filtered for significant expression by a RPKM of 25 in at least one sample set. […] Transcripts were validated using Brilliant II SYBR Green qRT-PCR Master Mix Kit (Agilent Technologies) with primers listed in the following table. Two-tail p-value between our gene sets and other gene sets calculated using Fisher's Exact Test.

In data set [2] the test system is ASZ001 cells. The experiment in a line: 3' end RNA sequencing of inhibitor-treated BCC cells. It is filed as cell-based, mouse. As to conditions: inhibitor 24 hrs, FIG. 3a. As to the method:
as §3

With `CCCCCCCCCCCCCC(=O)N[C@@H](CO)C(=O)N[C@H](C(=O)N[C@@H](Cc1ccc(O)cc1)C(=O)N[C@@H](CCCNC(=N)N)C(=O)N[C@@H](CCCNC(=N)N)C(=O)NCC(=O)N[C@@H](C)C(=O)N[C@@H](CCCNC(=N)N)C(=O)N[C@@H](CCCNC(=N)N)C(=O)N[C@@H](Cc1c[nH]c2ccccc12)C(=O)N[C@@H](CCCNC(=N)N)C(=O)N[C@@H](CCCCN)C(=O)N[C@@H](CC(C)C)C(=O)N[C@@H](Cc1ccc(O)cc1)C(=O)O)[C@@H](C)CC` [PSI] (Myristoyl-SIYRRGARRWRKLY-OH), the “proliferation in non-tumorigenic cells” value in the data set on non-tumorigenic cells is given as “unaffected”. Moreover, in the data set with allografted BCC tumors, the “adverse effects on normal skin” value is on record as “no adverse effects to PSI treatment except a mild hair phenotype”. Further, in the data set with ASZ001 cells [1], the IC50 was 5 µM.

Consider `CNC1CCC(N(Cc2cccc(-c3ccncc3)c2)C(=O)c2sc3ccccc3c2Cl)CC1` (centres unmarked) [SAG], for which the gli1 transcription result in the data set with Hh signaling (BCC cells, agonist alone, FIG. 3d) is recorded as “activates gli1 transcription”.

Take `CC1=C2C[C@H]3[C@@H](CC=C4C[C@@H](O)CC[C@@]43C)[C@@H]2CC[C@]12O[C@@H]1C[C@H](C)CN[C@H]1[C@H]2C` [cyclopamine]: the “gli1 and apkciota transcript” value in the data set on Hh signaling (BCC cells, FIG. 2g) was “specifically suppressed”.

`Cc1nn(-c2ccccc2)c(C)c1/C=N/N1CCN(Cc2ccccc2)CC1` [Sant-1]: the “transcripts changed two-fold or greater compared to control” value with ASZ001 cells [2] is reported as 5700 transcripts. Moreover, in the data set with Hh signaling (mouse BCC cells, FIG. 2i), the cdc42 transcript entry is on record as “repressed” and the pard6a transcript result is on record as “elevated”.
